In this assay the target is T1, LPAR1 receptor (Homo sapiens, UniProt Q92633).
T1 construct: expressed in transfected cells
In words: LPAR1 in vitro biological activity evaluation 2: HTRF cAMP kit (LANCE Ultra cAMP Kit) assay in CHO stable transfected cell line expressing the LPAR1 receptor. The format is cell-based. The conditions noted are these: Table 2, read-out: LPAR1 inhibitory activity IC50. As to the method: The inhibitory effects of the compounds of the present disclosure on the LPAR1 receptor were determined using a Chinese hamster ovary (CHO) stable transfected cell line expressing the LPAR1 receptor, through the HTRF cAMP kit (LANCE® Ultra cAMP Kit).
The CHO cell line expressing the LPAR1 receptor was cultured in F-12 medium (Gibco, 117650054) containing 10% fetal bovine serum (FBS, Avantor, 76294-180) and 0.2 mg/mL hygromycin B (Solarbio, H8080-1g) at 37°C with 5% CO2. Cell passage, recovery, and cryopreservation were performed according to conventional methods. The stable transfected cell line was cultured to 80% confluence, digested with trypsin to collect cells, counted, and then seeded at 5 µL/well in a 384-well plate (500 cells/5 µL). The 1× Stimulation Buffer was prepared according to the instructions of the kit (LANCE® Ultra cAMP Kit). 1 µL of the test compound solution (diluted to 10× with 1× Stimulation Buffer) was added to the corresponding experimental wells, followed by centrifugation and incubation at 37°C for 10 minutes. […] 5 µL/well of Eu-cAMP (diluted with Detection buffer) was added to the corresponding experimental wells. 5 µL/well of ULight™-anti-cAMP antibody (diluted with Detection buffer) was added to the corresponding experimental wells, followed by centrifugation and incubation at room temperature for 1 hour. After the incubation was completed, the readings at 665 nm and 620 nm under 330 nm excitation were detected using the HTS high-throughput drug screening multifunctional microplate reader (BMG, PHERAstar FSX). The IC50 values were calculated by fitting nonlinear regression (dose response - variable slope) using GraphPad Prism software.
For orientation: TR-FRET usually uses a lanthanide donor and a delayed reading to cut background.

Structures are written as SMILES.

In general, IC50 refers to the midpoint of a concentration-inhibition curve.

T1 sequence (Q92633 whole entry): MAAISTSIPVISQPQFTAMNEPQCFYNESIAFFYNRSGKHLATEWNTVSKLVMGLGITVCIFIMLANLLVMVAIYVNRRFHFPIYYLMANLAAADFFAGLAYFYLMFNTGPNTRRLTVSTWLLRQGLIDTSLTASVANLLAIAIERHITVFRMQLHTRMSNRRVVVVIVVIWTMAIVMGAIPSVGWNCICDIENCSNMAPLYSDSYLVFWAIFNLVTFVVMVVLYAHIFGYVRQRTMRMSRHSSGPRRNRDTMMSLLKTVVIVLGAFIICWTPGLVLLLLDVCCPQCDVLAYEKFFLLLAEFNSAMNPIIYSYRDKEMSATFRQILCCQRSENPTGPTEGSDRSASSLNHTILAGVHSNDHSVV

Regarding `CCC[C@@H](C)OC(=O)Nc1c(-c2ccc(C#CC3(CC(=O)O)CC(OC)C3)c(C)n2)nnn1C` (single isomer, unassigned) [278-A], the half-maximal inhibitory concentration (IC50) was determined as 46.2 nM. Next, `CCC[C@@H](C)OC(=O)Nc1c(-c2ccc(C#CC3(CC(=O)O)CC(OC)C3)c(C)n2)nnn1C` (single isomer, unassigned) [278-B]: 56 nM. Take `Cc1nc(-c2nnn(C)c2COC(=O)N(C)CCC(C)(F)F)ccc1C#C[C@@H]1CCC[C@H]1C(=O)O` (single isomer, unassigned) [282-A]: the concentration for half-maximal inhibition (IC50) was 87.6 nM. Regarding `CCCC(C)OC(=O)Nc1c(-c2ccc(C#CC3CCCC3C(=O)O)c(C)n2)nnn1C` (single isomer, unassigned) [305-A], the half-maximal inhibitory concentration (IC50) amounted to 25.6 nM. On to `Cc1nc(-c2nnn(C)c2NC(=O)O[C@H](C)c2ccccc2Cl)ccc1C#C[C@@H]1C[C@H]1C(=O)O` [compound 053], for which the IC50 amounted to 117 nM. Take `CCCN(C)C(=O)OCc1c(-c2ccc(C#CC3(CC(=O)O)CC3)c(C(F)(F)F)n2)nnn1C` [compound 101]: the IC50 was 205 nM.

`CCCCN(C)C(=O)OCc1c(-c2ccc(C#CC3(CC(=O)O)CC(F)(F)C3)c(C)n2)nnn1C` [compound 109]: the 50% inhibitory concentration (IC50) worked out at 23.9 nM. On to `CCCCN(C)C(=O)OCc1c(-c2ccc(C#CC3(CC(=O)O)CC(OC)C3)c(C)n2)nnn1C` (stereo not shown) [compound 113], for which the IC50 was found to be 19.6 nM. Turning to `CCCCN(C)C(=O)OCc1c(-c2ccc(C#CC3(CC(=O)O)CC(OCC)C3)c(C)n2)nnn1C` (stereo not shown) [compound 114], the IC50 was 9.2 nM.

`CCCN(C)C(=O)OCc1c(-c2ccc(C#CC3(CC(=O)O)CC4(CC4)C3)c(C)n2)nnn1C` [compound 115]: the half-inhibitory concentration (IC50) was 8.3 nM.

With `CCOc1ccnc(NCc2c(-c3ccc(C#CC4(CC(=O)O)CC4)c(C)n3)nnn2C)n1` [compound 118], the IC50 worked out at 83.9 nM.

Regarding `CCC(F)(F)[C@@H](C)OC(=O)Nc1c(-c2ccc(C#CC3(CC(=O)O)CC3)c(C(F)(F)F)n2)nnn1C` [compound 208, (R)-2-(1-((6-(5-((((3,3-difluoropentan-2-yl)oxy)carbonyl)amino)-1-methyl-1H-1,2,3-triazol-4-yl)-2-(trifluoromethyl)pyridin-3-yl)ethynyl)cyclopropyl)acetic acid], the concentration for half-maximal inhibition (IC50) was 44.1 nM.

Consider `CCc1nc(-c2nnn(C)c2NC(=O)O[C@H](C)C(F)(F)CC)ccc1C#CC1(CC(=O)O)CC1` [compound 233], for which the IC50 was determined as 163 nM. In the case of `Cc1nc(-c2nnn(C)c2NC(=O)O[C@H](C)CC2CC2)ccc1C#C[C@@H]1CC[C@H]1C(=O)O` [compound 248], the IC50 amounted to 72.2 nM. The value for `CCC(F)(F)[C@@H](C)OC(=O)Nc1c(C)noc1-c1ccc(C#CC2(CC(=O)O)CC2)c(C)n1` [compound 277] was 26.6 nM; that for `Cc1nc(-c2nnn(C)c2NC(=O)O[C@H](C)CC(C)C)ccc1C#C[C@@H]1C[C@H]1C(=O)O` [compound 290] was 190 nM; that for `Cc1nc(-c2nnn(C)c2NC(=O)OC(C)C23CC(C2)C3)ccc1C#C[C@@H]1C[C@H]1C(=O)O` (stereo partly shown) [compound 294] was 195 nM.

Take `Cc1nc(-c2nnn(C)c2NC(=O)OC(C)C23CC(C2)C3)ccc1C#C[C@@H]1CC[C@H]1C(=O)O` (stereo partly shown) [compound 296]: the IC50 turned out to be 83.8 nM. `Cc1nc(-c2nnn(C)c2NC(=O)O[C@H](C)CC(C)C)ccc1C#C[C@@H]1CC(F)(F)C[C@H]1C(=O)O` [compound 299]: the IC50 is 13.6 nM. Take `CCC[C@@H](C)OC(=O)Nc1c(-c2ccc(C#C[C@@H]3CC(F)(F)C[C@H]3C(=O)O)c(C)n2)nnn1C` [compound 304]: the IC50 was determined as 134 nM. On to `CCC[C@@H](C)OC(=O)Nc1c(-c2ccc(C#C[C@@H]3CCC[C@H]3C(=O)O)c(C)n2)nnn1C` [compound 305], for which the IC50 was found to be 91.2 nM. `CCC(F)(F)[C@@H](C)OC(=O)Nc1c(-c2ccc(C#CC3(CC(=O)O)CCC3)c(C)n2)nnn1C` [compound 323]: the half-inhibitory concentration (IC50) came out at 14.8 nM. As to `Cc1nc(-c2noc(C)c2NC(=O)O[C@H](C)CC(C)(F)F)ccc1C#CC1(CC(=O)O)CC1` [compound 334], the half-inhibitory concentration (IC50) amounted to 107 nM.

On to `CCC(F)(F)[C@@H](C)OC(=O)Nc1c(C)noc1-c1ccc(C#CC2(CC(=O)O)CC2)c(CF)n1` [compound 335], for which the IC50 was determined as 113 nM. As for `Cc1nc(-c2onc(C)c2NC(=O)O[C@H](C)CC(C)(F)F)ccc1C#C[C@@H]1CC[C@H]1C(=O)O` [compound 340], the 50% inhibitory concentration (IC50) amounted to 83.9 nM. With `Cc1nc(-c2nnn(C)c2NC(=O)O[C@H](C)c2ccccc2)ccc1C#C[C@@H]1CCC[C@H]1C(=O)O` [compound 402], the half-inhibitory concentration (IC50) was 47.2 nM. In the case of `CCC[C@@H](C)OC(=O)Nc1c(-c2ccc(C#CC3(CC(=O)O)CC(OCC)C3)c(C)n2)nnn1C` (stereo partly shown) [compound 427], the concentration for half-maximal inhibition (IC50) came out at 59 nM. `CCOC1CC(C#Cc2ccc(-c3nnn(C)c3NC(=O)O[C@H](C)CC(C)(F)F)nc2C)(CC(=O)O)C1` (stereo partly shown) [compound 430]: the IC50 stood at 63.2 nM.

As for `Cc1nc(-c2nnn(C)c2NC(=O)O[C@H](C)C23CC(C2)C3)ccc1C#CC1(CC(=O)O)CC(F)(F)C1` [compound 432], the IC50 was 16.6 nM. For `Cc1nc(-c2nnn(C)c2NC(=O)O[C@H](C)CC(C)(F)F)ccc1C#CC1(CC(=O)O)CC2(CC2)C1` [compound 448], the IC50 came to 6.8 nM.

For the molecule `CCC(F)(F)[C@@H](C)OC(=O)Nc1c(-c2ccc(C#CC3(CC(=O)O)CC4(CC4)C3)c(C)n2)nnn1C` [compound 449], the concentration for half-maximal inhibition (IC50) was 5.6 nM.

Consider `CCC(F)(F)[C@@H](C)OC(=O)Nc1c(-c2ccc(C#CC3(CC(=O)O)CC(OC)C3)c(Cl)n2)nnn1C` (stereo partly shown) [compound 461], for which the IC50 worked out at 23.4 nM. Next, `COC1CC(C#Cc2ccc(-c3nnn(C)c3NC(=O)O[C@H](C)c3ccccc3)nc2C)(CC(=O)O)C1` (stereo partly shown) [compound 464]: 23.6 nM; `COC1CC(C#Cc2ccc(-c3nnn(C)c3NC(=O)O[C@H](C)c3ccccc3Cl)nc2C)(CC(=O)O)C1` (stereo partly shown) [compound 465]: 30.9 nM; `COC1CC(C#Cc2ccc(-c3nnn(C)c3NC(=O)O[C@H](C)c3ccccc3F)nc2C)(CC(=O)O)C1` (stereo partly shown) [compound 466]: 25.5 nM. As for `CCOC1CC(C#Cc2ccc(-c3nnn(C)c3NC(=O)O[C@H](C)C(F)(F)CC)nc2Cl)(CC(=O)O)C1` (stereo partly shown) [compound 467], the IC50 amounted to 16.5 nM.

Turning to `CCC(F)(F)[C@@H](C)OC(=O)Nc1c(-c2ccc(C#CC3(CC(=O)O)CC(OC)C3)c(Cl)n2)noc1C` (stereo partly shown) [compound 470], the 50% inhibitory concentration (IC50) amounted to 24.1 nM. Next, `CCC(F)(F)[C@@H](C)OC(=O)Nc1c(C)noc1-c1ccc(C#CC2(CC(=O)O)CC(OC)C2)c(Cl)n1` (stereo partly shown) [compound 471]: 33.6 nM; `CCC(F)(F)[C@@H](C)OC(=O)Nc1c(-c2ccc(C#Cc3ccncc3C(=O)O)c(C)n2)nnn1C` [compound 474, (R)-4-((6-(5-((((3,3-difluoropentan-2-yl)oxy)carbonyl)amino)-1-methyl-1H-1,2,3-triazol-4-yl)-2-methylpyridin-3-yl)ethynyl)nicotinic acid]: 167 nM. `CCc1nc(-c2nnn(C)c2NC(=O)O[C@H](C)CC(C)(F)F)ccc1C#CC1(CC(=O)O)CC(OC)C1` (stereo partly shown) [compound 476]: the concentration for half-maximal inhibition (IC50) is 76.5 nM. Next, `CCC[C@@H](C)OC(=O)Nc1c(-c2ccc(C#CC3(CC(=O)O)CC4(CC4)C3)c(C)n2)nnn1C` [compound 478]: 2.1 nM. In the case of `CCC(F)(F)[C@@H](C)OC(=O)Nc1c(C)noc1-c1ccc(C#C[C@@H]2CCC[C@H]2C(=O)O)c(C)n1` [compound 485], the 50% inhibitory concentration (IC50) is 52.3 nM.

Consider `CCC(F)(F)[C@@H](C)OC(=O)Nc1c(C)noc1-c1ccc(C#C[C@@H]2CC[C@H]2C(=O)O)c(C)n1` [compound 486], for which the concentration for half-maximal inhibition (IC50) turned out to be 34.1 nM.

On to `CCC(F)(F)[C@@H](C)OC(=O)Nc1c(C)noc1-c1ccc(C#C[C@@H]2CC(F)(F)C[C@H]2C(=O)O)c(C)n1` [compound 487], for which the 50% inhibitory concentration (IC50) is 35.2 nM.

As to `CCC(F)(F)[C@@H](C)OC(=O)Nc1c(C)noc1-c1ccc(C#CC2(CC(=O)O)CC(OC)C2)c(C)n1` (stereo partly shown) [compound 488], the 50% inhibitory concentration (IC50) was 51.5 nM. As for `CCOC1CC(C#Cc2ccc(-c3nnn(C)c3NC(=O)O[C@H](C)C(F)(F)CC)nc2CC)(CC(=O)O)C1` (stereo partly shown) [compound 489], the concentration for half-maximal inhibition (IC50) stood at 14.1 nM. `CCOC1CC(C#Cc2ccc(-c3nnn(C)c3NC(=O)O[C@H](C)C(F)(F)CC)nc2C(F)(F)F)(CC(=O)O)C1` (stereo partly shown) [compound 490]: the concentration for half-maximal inhibition (IC50) was found to be 8.6 nM. With `CCC(F)(F)[C@@H](C)OC(=O)Nc1c(-c2ccc(C#CC3(CC(=O)O)CC(OC)C3)c(F)n2)noc1C` (stereo partly shown) [compound 491], the IC50 was 27.1 nM. Consider `CCC(F)(F)[C@@H](C)OC(=O)Nc1c(-c2ccc(C#CC3(CC(=O)O)CC(OC)C3)c(C(F)(F)F)n2)noc1C` (stereo partly shown) [compound 493], for which the half-maximal inhibitory concentration (IC50) came to 8.5 nM. On to `C[C@H](CC(C)(F)F)OC(=O)Nc1c(-c2ccc(C#CC3(CC(=O)O)CC4(CC4)C3)c(C(F)(F)F)n2)nnn1C` [compound 498], for which the IC50 came to 6 nM. Take `CCC(F)(F)[C@@H](C)OC(=O)Nc1c(-c2ccc(C#CC3(CC(=O)O)CC4(CC4)C3)c(C(F)(F)F)n2)nnn1C` [compound 499]: the IC50 was determined as 11.5 nM. For `CCc1nc(-c2nnn(C)c2NC(=O)O[C@H](C)CC(C)(F)F)ccc1C#CC1(CC(=O)O)CC2(CC2)C1` [compound 500], the IC50 turned out to be 4.5 nM.

For the origin of these results see EP4755881A1 (Wuhan Createrna Science and Technology Co., Ltd., priority 2023, dated 2025).
